These results are taken from patent publication US7160880B1, “Short-acting benzodiazepines” (CeNeS Limited, priority 1999, dated 2007).

The target in experiment [1] is benzodiazepine receptor (benzodiazepine site on the GABAA receptor complex). Description: Benzodiazepine radioligand (3H-flunitrazepam) binding assay.
Experiment [2] deals with male Wistar rats. Nature of the experiment: Loss of the righting reflex (LRR) in rats. It is filed as in vivo, rat. The conditions noted are these: i.v. via tail vein, dose in the range of 10–100 mg/kg. Here is the method: The intrinsic efficacy of a compound was assessed by its ability to cause loss of the righting reflex (LRR) in rats, an effect associated with benzodiazepine full agonism.
Method: Subjects for these studies were male Wistar rats, weighing approximately 250–350 grams. To assess loss of righting reflex (LRR), animals were placed in plastic restrainers and test compounds were administered i.v. via the tail vain. Subjects were immediately removed from the restrainer and the time to onset of loss of righting reflex was recorded. LRR was defined as the loss of an animal's ability to right itself when placed in a supine position. […] Compounds producing LRR were evaluated by three measures: 1) Time to onset of LRR (as described above) 2) Time to recover from LRR. An animal met this criteria when able to right itself three consecutive times after losing its righting reflex 3) Total recovery time. Total recovery was measured by the animal's ability to walk without ataxia as well as its ability to pull itself up three consecutive times when suspended from a horizontal wire. […] The therapeutically useful dosage range for administration to mammals is 0.01 to 5.0 mg/kg of body weight.

[3] abbreviates: read-out: Benzodiazepine receptor binding Ki, 3H-flunitrazepam, brain membrane homogenates, 90 minutes at 4° C., tissue species of the tabulated values not stated.

Like-named read-outs stand apart in the source and are kept apart here. A value given as a limit tells only on which side of the number the result lay.

On to `CCNC1=Nc2ccc(Cl)cc2C(c2ccccc2F)=N[C@H]1CCC(=O)OC` [Example 1b-3], for which the Ki in experiment [1] (setting [3]) lay within 101 to 1000 nM.
Turning to `COC(=O)CC[C@@H]1N=C(c2ccccc2F)c2cc(Cl)ccc2N=C1NCC(C)C` [Example 1b-7], the Ki in experiment [1] (setting [3]) is over 1000 nM.
Same read-out and setting: to `COC(=O)CC[C@@H]1N=C(c2ccccn2)c2cc(Cl)ccc2-n2cc(CO)nc21` [Example 1c-11] belongs 101 to 1000 nM.
In the case of `COC(=O)CC[C@@H]1N=C(c2ccccc2F)c2cc(Cl)ccc2-n2c1cnc2C` (racemic) [Example 1c-18], the Ki in experiment [1] (setting [3]) is 1 to 50 nM. Moreover, in experiment [2], the “loss of righting reflex (LRR)” value was “producing loss-of-righting”.
Take `CCCOC(=O)CC[C@@H]1N=C(c2ccccn2)c2cc(Cl)ccc2NC1=O` [Example 1-14]: the Ki in experiment [1] (setting [3]) fell in the range of 101 to 1000 nM.
As for `COC(=O)CC[C@@H]1N=C(c2ccccc2F)c2cc(Cl)ccc2N(C)C1=O` [Example 1-23], the Ki in experiment [1] (setting [3]) lay within 1 to 50 nM. Moreover, in experiment [2], the “loss of righting reflex (LRR)” value is “producing loss-of-righting”.
On the same counts, the results for `COC(=O)CC[C@@H]1N=C(c2ccccc2Cl)c2cc(Cl)ccc2NC1=O` [Example 1-7] are 1 to 50 nM and “producing loss-of-righting”.
With `COC(=O)CC[C@@H]1N=C(c2ccccc2F)c2cc(Cl)ccc2-n2c(CO)cnc21` [Example 1c-5], the Ki in experiment [1] (setting [3]) was 1 to 50 nM.
In the case of `O=C(CC[C@@H]1N=C(c2ccccc2F)c2cc(Cl)ccc2NC1=O)OCc1ccccc1` [Example 1-6], the Ki in experiment [1] (setting [3]) was in the range of 101 to 1000 nM. Besides, the “loss of righting reflex (LRR)” value in experiment [2] was “producing loss-of-righting”.
On the same counts, the results for `O=C(CC[C@@H]1N=C(c2ccccc2F)c2cc(Cl)ccc2NC1=O)OCc1ccccc1` [Example 1-5] are 1 to 50 nM and “producing loss-of-righting”.
For `COC(=O)CC[C@@H]1N=C(c2ccccn2)c2cc(Br)ccc2-n2cc(C)nc21` [Example 1c-9], the Ki in experiment [1] (setting [3]) is 1 to 50 nM.
For the molecule `COC(=O)CC[C@@H]1N=C(c2ccccc2F)c2cc(Cl)ccc2N=C1NCc1ccccc1` [Example 1b-4], the Ki in experiment [1] (setting [3]) lay within 101 to 1000 nM.
In the case of `COC(=O)CC[C@@H]1N=C(c2ccccn2)c2cc(Cl)ccc2-n2c(C)cnc21` [Example 1c-7], in experiment [1] (setting [3]), the Ki was 51 to 100 nM. Further, the “loss of righting reflex (LRR)” value in experiment [2] was “producing loss-of-righting”.
Turning to `CCOC(=O)C[C@@H]1N=C(c2ccccc2F)c2cc(Cl)ccc2NC1=O` [Example 1-20], the Ki in experiment [1] (setting [3]) was in the range of 1 to 50 nM.
Turning to `COC(=O)CC[C@@H]1N=C(c2ccccc2F)c2cc(Cl)ccc2-n2ccnc21` [Example 1c-1], in experiment [1] (setting [3]), the Ki is 1 to 50 nM. Moreover, the “loss of righting reflex (LRR)” value in experiment [2] is given as “producing loss-of-righting”.
As for `COC(=O)CC[C@@H]1N=C(c2ccccc2F)c2cc(Cl)ccc2-n2cncc21` [Example 1c-17], in experiment [1] (setting [3]), the Ki fell in the range of 101 to 1000 nM. The “loss of righting reflex (LRR)” value in experiment [2] is given as “producing loss-of-righting”.
On the same counts, the results for `CNC1=Nc2ccc(Br)cc2C(c2ccccc2F)=N[C@H]1CCC(=O)OC` [Example 1b-10] are 1 to 50 nM and “producing loss-of-righting”.
Take `COC(=O)CC[C@@H]1N=C(c2ccccc2F)c2cc(Cl)ccc2-n2cc(CO)nc21` [Example 1c-4]: the Ki in experiment [1] (setting [3]) is 1 to 50 nM.
Same read-out and setting: with `COC(=O)CC[C@H]1C(=O)Nc2ccc(Cl)cc2C(c2ccccc2F)=[N+]1[O-]` [Example 1-31] the figure was 51 to 100 nM; with `CCN(CC)CCN1C(=O)[C@H](CCC(=O)OC)N=C(c2ccccc2F)c2cc(Cl)ccc21` [Example 1-22], 101 to 1000 nM; with `COC(=O)CCC[C@@H]1N=C(c2ccccc2F)c2cc([N+](=O)[O-])ccc2NC1=O` [Example 1-13], 1 to 50 nM.
The same measure, in the same setting: to `CC(C)COC(=O)CC[C@@H]1N=C(c2ccccn2)c2cc(Cl)ccc2NC1=O` [Example 1-19] belongs 101 to 1000 nM.
Consider `COC(=O)CC[C@@H]1N=C(c2ccccc2F)c2cc(Br)ccc2NC1=O` [Example 1-3], for which the Ki in experiment [1] (setting [3]) is 1 to 50 nM. Further, the “loss of righting reflex (LRR)” value in experiment [2] is given as “producing loss-of-righting”.
In the same order, the values of `COC(=O)CC[C@@H]1N=C(c2ccccc2F)c2cc(Cl)ccc2-n2c(C)nnc21` [Example 1c-15] are 1 to 50 nM and “producing loss-of-righting”.
As for `CN1C(=O)[C@H](CC(=O)OCc2ccccc2)N=C(c2ccccc2F)c2cc(Cl)ccc21` [Example 1-24], the Ki in experiment [1] (setting [3]) lay in the range of 51 to 100 nM.
With `COC(=O)CC[C@@H]1N=C(c2ccccn2)c2cc(Br)ccc2NC1=O` [Example 1-10], the inhibition constant (Ki) in experiment [1] (setting [3]) lay within 51 to 100 nM.
The same measure, in the same setting: with `COC(=O)CC[C@@H]1N=C(c2ccccn2)c2cc(Cl)ccc2-n2c1nc(C)c2C` [Example 1c-13] the figure was 101 to 1000 nM.
The same measure, in the same setting: to `CCOC(=O)CC[C@@H]1N=C(c2ccccn2)c2cc(Cl)ccc2NC1=O` [Example 1-15] belongs 101 to 1000 nM.
In the case of `COC(=O)CC[C@@H]1N=C(c2ccccn2)c2cc(Cl)ccc2-n2ccnc21` [Example 1c-6], in experiment [1] (setting [3]), the Ki was in the range of 51 to 100 nM. Further, the “loss of righting reflex (LRR)” value in experiment [2] was “producing loss-of-righting”.
With `CN1C(=O)CN=C(c2ccccc2Cl)c2cc(Cl)ccc21` [2′-chlorodiazepam, reference compound], the affinity in experiment [1] (compound used at 10 μM to define nonspecific binding) corresponds to a Ki of 0.5 nM.
Consider `CNC1=Nc2ccc(Cl)cc2C(c2ccccc2F)=N[C@H]1CCC(=O)OC` [Example 1b-1], for which the Ki in experiment [1] (setting [3]) was in the range of 51 to 100 nM. Also, the “loss of righting reflex (LRR)” value in experiment [2] is recorded as “producing loss-of-righting”.
With `CCN(CC)CCN1C(=O)[C@H](CCC(=O)OCc2ccccc2)N=C(c2ccccc2F)c2cc(Cl)ccc21` [Example 1-25], in experiment [1] (setting [3]), the Ki lay within 51 to 100 nM.
For the molecule `COC(=O)CC[C@@H]1N=C(c2ccccc2F)c2cc(Cl)ccc2-n2cc(C)nc21` [Example 1c-3], the Ki in experiment [1] (setting [3]) is 1 to 50 nM. For the same molecule, the “loss of righting reflex (LRR)” value in experiment [2] is “producing loss-of-righting”.
As to `Cc1nnc2n1-c1ccc(Cl)cc1C(c1ccccc1F)=N[C@H]2CCC(=O)OCC(C)C` [Example 1c-16], in experiment [1] (setting [3]), the Ki fell in the range of 1 to 50 nM.
Same read-out and setting: to `CC(C)OC(=O)CC[C@@H]1N=C(c2ccccc2F)c2cc(Cl)ccc2NC1=O` [Example 1-21] belongs 1 to 50 nM.
For `COC(=O)CC[C@@H]1N=C(c2ccccn2)c2cc(Cl)ccc2NC1=O` [Example 1-11], the Ki in experiment [1] (setting [3]) lay in the range of 101 to 1000 nM. The “loss of righting reflex (LRR)” value in experiment [2] is given as “producing loss-of-righting”.
For the molecule `COC(=O)CC[C@@H]1N=C(c2ccccc2Cl)c2cc(Cl)ccc2-n2c(C)nnc21` [Example 1c-14], the Ki in experiment [1] (setting [3]) is 1 to 50 nM. Moreover, the “loss of righting reflex (LRR)” value in experiment [2] is recorded as “producing loss-of-righting”.
On the same counts, the results for `COC(=O)CC[C@@H]1N=C(c2ccccc2F)c2cc(Cl)ccc2-n2c(C)cnc21` [Example 1c-2] are 1 to 50 nM and “producing loss-of-righting”.
Take `CCCCOC(=O)CC[C@@H]1N=C(c2ccccc2F)c2cc(Cl)ccc2NC1=O` [Example 1-17]: in experiment [1] (setting [3]), the Ki was 101 to 1000 nM. Also, the “loss of righting reflex (LRR)” value in experiment [2] is reported as “producing loss-of-righting”.
Turning to `COC(=O)CC[C@@H]1N=C(c2ccccc2F)c2cc(Cl)ccc2NC1=O` [Example 1-2], the Ki in experiment [1] (setting [3]) was 51 to 100 nM.
The same measure, in the same setting: to `COC(=O)CC[C@@H]1N=C(c2ccccc2F)c2cc(Cl)ccc2-n2cc(COC(C)(C)C)nc21` [Example 1c-19] belongs 1 to 50 nM.
Turning to `COC(=O)CC[C@@H]1N=C(c2ccccc2F)c2cc(Cl)ccc2NC1=O` [Example 1-1, Methyl 3-[(3S)-7-chloro-5-(2-fluorophenyl)-2-oxo-2,3-dihydro-1H-1,4-benzodiazepin-3-yl]propanoate], in experiment [1] (setting [3]), the Ki fell in the range of 1 to 50 nM. Moreover, the “loss of righting reflex (LRR)” value in experiment [2] is “producing loss-of-righting”.
With `COC(=O)CCC[C@@H]1N=C(c2ccccc2F)c2cc(Cl)ccc2NC1=O` [Example 1-8], in experiment [1] (setting [3]), the Ki was 1 to 50 nM.
On to `COC(=O)CC[C@@H]1N=C(c2ccccc2F)c2cc(Cl)ccc2N=C1NCCc1c[nH]cn1` [Example 1b-8], for which, in experiment [1] (setting [3]), the Ki was in the range of 101 to 1000 nM.
For `COC(=O)CC[C@@H]1N=C(c2ccccn2)c2cc(Cl)ccc2-n2cc(C)nc21` [Example 1c-10], the Ki in experiment [1] (setting [3]) was 51 to 100 nM. Besides, the “loss of righting reflex (LRR)” value in experiment [2] is “producing loss-of-righting”.
On to `COC(=O)CCNC1N=C(c2ccccc2Cl)c2cc(Cl)ccc2NC1=O` (stereo not shown) [Example 1-27], for which the Ki in experiment [1] (setting [3]) lay in the range of 1 to 50 nM.
On the same count and under the same terms, with `CCCCOC(=O)CC[C@@H]1N=C(c2ccccn2)c2cc(Cl)ccc2NC1=O` [Example 1-18] the figure was 101 to 1000 nM; with `COC(=O)CNC1N=C(c2ccccc2Cl)c2cc(Cl)ccc2NC1=O` (stereo not shown) [Example 1-26], 51 to 100 nM.
For the molecule `COC(=O)CC[C@@H]1N=C(c2ccccn2)c2cc(Br)ccc2-n2c(C)cnc21` [Example 1c-8, Methyl 3-[(4S)-8-bromo-1-methyl-6-(2-pyridinyl)-4H-imidazo[1,2-a][1,4]benzodiazepin-4-yl]propanoate], the Ki in experiment [1] (setting [3]) is 1 to 50 nM. In experiment [2], the “loss of righting reflex (LRR)” value is on record as “producing loss-of-righting”.
For `COC(=O)CC[C@@H]1N=C(c2ccccc2F)c2cc(Cl)ccc2N=C1NCc1ccncc1` [Example 1b-5], in experiment [1] (setting [3]), the Ki is over 1000 nM.
For `COC(=O)CC[C@H]1N=C(c2ccccc2F)c2cc(Cl)ccc2NC1=O` [Example 1-4], the Ki in experiment [1] (setting [3]) lay within 101 to 1000 nM. Moreover, the “loss of righting reflex (LRR)” value in experiment [2] is “producing loss-of-righting”.
Regarding `COC(=O)CC[C@@H]1N=C(c2ccccc2F)c2cc(Cl)ccc2N=C1NCCO` [Example 1b-9], in experiment [1] (setting [3]), the Ki lay within 101 to 1000 nM.
As to `COC(=O)CC[C@@H]1N=C(c2ccccn2)c2cc(Cl)ccc2-n2c(CO)cnc21` [Example 1c-12], the Ki in experiment [1] (setting [3]) lay within 101 to 1000 nM.
On the same count and under the same terms, with `COC(=O)CC[C@@H]1N=C(c2ccccc2F)c2cc(Cl)ccc2N=C1NCCc1ccncc1` [Example 1b-6] the figure was 101 to 1000 nM.

One may read the Ki as the equilibrium dissociation constant of an inhibitor or competing ligand from its target.
